Where two headings read alike, the source gives them in different places. Blank lines part the entries; values can stand above or below the compound they belong to.
Columns and labels:
[1] = test system: p52 (NF-kB2) nuclear translocation in HeLa cells; assay: p52 nuclear translocation assay (non-classical NF-kB signaling), high content imaging; format: cell-based; conditions: 100 ng/mL anti-lymphotoxin beta receptor antibody for 5 hours, read-out: p52 HeLa Transloc Assay (IC50)
Method in brief: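 HeLa cells in 10% FBS medium were treated with compound (0.2% DMSO final), then stimulated 5 h with 100 ng/mL anti-lymphotoxin beta receptor antibody. After fixation, cells were immunostained for p52 (2 ug/mL antibody) with DRAQ5 nuclear stain and imaged by high-content imaging. IC50 in µM was derived from the nuclear/cytoplasmic signal ratio.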

[2] = target: nuclear factor-kappa B (NF-kB)-inducing kinase (NIK) (Homo sapiens (Human), UniProt Q99558); assay: NIK Enzyme Inhibition Assay (Transcreener ADP fluorescence polarization); format: biochemical; conditions: read-out: NIK ADP-FP (Ki uM)
nuclear factor-kappa B (NF-kB)-inducing kinase (NIK), sequence (Q99558 whole entry): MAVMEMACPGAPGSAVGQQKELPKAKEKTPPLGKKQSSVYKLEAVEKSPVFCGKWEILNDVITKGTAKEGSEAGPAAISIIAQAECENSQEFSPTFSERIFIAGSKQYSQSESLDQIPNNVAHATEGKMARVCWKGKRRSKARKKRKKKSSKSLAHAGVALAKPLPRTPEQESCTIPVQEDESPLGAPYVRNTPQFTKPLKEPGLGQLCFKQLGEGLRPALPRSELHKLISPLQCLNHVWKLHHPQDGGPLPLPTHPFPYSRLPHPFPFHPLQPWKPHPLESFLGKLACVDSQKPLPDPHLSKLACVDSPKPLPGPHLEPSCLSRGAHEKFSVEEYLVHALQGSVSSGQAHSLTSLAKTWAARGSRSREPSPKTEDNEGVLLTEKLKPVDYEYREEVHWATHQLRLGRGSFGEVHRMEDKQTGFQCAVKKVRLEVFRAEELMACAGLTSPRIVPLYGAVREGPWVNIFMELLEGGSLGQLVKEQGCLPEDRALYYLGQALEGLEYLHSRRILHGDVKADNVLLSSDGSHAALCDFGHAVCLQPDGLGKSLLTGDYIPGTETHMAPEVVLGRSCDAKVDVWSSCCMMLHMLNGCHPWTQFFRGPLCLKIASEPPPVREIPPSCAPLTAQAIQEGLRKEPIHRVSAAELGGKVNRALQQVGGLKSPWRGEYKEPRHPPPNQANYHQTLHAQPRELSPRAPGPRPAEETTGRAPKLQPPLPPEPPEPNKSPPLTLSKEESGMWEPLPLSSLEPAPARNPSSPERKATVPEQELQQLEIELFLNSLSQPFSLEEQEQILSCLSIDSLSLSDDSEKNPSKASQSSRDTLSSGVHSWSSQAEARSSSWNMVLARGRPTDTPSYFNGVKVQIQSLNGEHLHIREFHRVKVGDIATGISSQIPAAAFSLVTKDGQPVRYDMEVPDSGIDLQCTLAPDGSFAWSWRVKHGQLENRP
Method in brief: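 Fluorescence-polarization ADP detection (tracer displacement, 633 nm excitation) read after EDTA/Brij quench. Reaction: 0.2-1 nM insect-cell-derived NIK, 10 uM ATP, HEPES pH 7.2 with MgCl2 and DTT, 1% DMSO, 1-3.5 h with compounds.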

[3] = test system: REL-A (p65) nuclear translocation in HeLa cells; assay: REL-A nuclear translocation assay (classical NF-kB signaling), high content imaging; format: cell-based; conditions: compounds 4.5 hours, then 10 ng/mL TNF-α for 30 minutes, read-out: REL-A HeLa Transloc Assay (IC50)
Method in brief: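 HeLa cells in 10% FBS medium preincubated with compounds (0.2% DMSO final) for 4.5 hours, then stimulated with 10 ng/mL TNF-α for 30 minutes. Fixed cells stained with 400 ng/mL anti-REL-A antibody, Alexa488 secondary and DRAQ5; translocation quantified by imaging as nuclear to cytoplasmic signal ratio.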

[4] = purified NIK 0.2-1 nM, 10 uM ATP, Morrison's quadratic equation

SMILES: CNC(=O)c1c(C(N)=O)nc2n1C1CC(C1)c1ccc(C#C[C@@](C)(O)c3noc(C)n3)cc1-2
- IC50 ([1]; Homo sapiens, HeLa, 5 h): 3800 nM
- Ki [2, 4]: 0.0021 µM
- IC50 ([3]; Homo sapiens, HeLa): 17500 nM

SMILES: CNC(=O)c1c(C(N)=O)nn2c1CCOc1ccc(C#C[C@]3(O)CCN(C)C3=O)cc1-2 (racemic) [Example 514]
- IC50 ([1]; Homo sapiens, HeLa, 5 h): 543 nM
- Ki [2, 4]: 0.0012 µM
- IC50 ([3]; Homo sapiens, HeLa): > 20000 nM

SMILES: CNC(=O)c1c(C(N)=O)nc2n1C1CC(C1)c1cc(F)c(C#CC3(O)CCCC3)cc1-2
- IC50 ([1]; Homo sapiens, HeLa, 5 h): 375 nM
- Ki [2, 4]: 0.00012 µM
- IC50 ([3]; Homo sapiens, HeLa): > 20000 nM

SMILES: CC(C)(O)C#Cc1cc2c(cc1F)C1CC(C1)n1c-2nc(C(N)=O)c1C1CN(C(=O)OC(C)(C)C)C1 (racemic)
- IC50 ([1]; Homo sapiens, HeLa, 5 h): 1800 nM
- Ki [2, 4]: 0.0077 µM
- IC50 ([3]; Homo sapiens, HeLa): > 20000 nM

SMILES: CC(C)(O)C#Cc1ccc2c(c1)-c1nc(C(N)=O)c(-c3nc(C4CC4)n[nH]3)n1CCO2 (racemic)
- IC50 ([1]; Homo sapiens, HeLa, 5 h): 594 nM
- Ki [2, 4]: 0.0024 µM
- IC50 ([3]; Homo sapiens, HeLa): > 20000 nM

SMILES: C[C@@](O)(C#Cc1ccc2c(c1)-c1nc(C(N)=O)c(-c3nc(C4CC4)n[nH]3)n1CCO2)c1ncccn1
- IC50 ([1]; Homo sapiens, HeLa, 5 h): 2100 nM
- Ki [2, 4]: 0.0072 µM
- IC50 ([3]; Homo sapiens, HeLa): > 20000 nM

SMILES: Cc1cc([C@](C)(O)C#Cc2cc3c(cc2F)C2CC(C2)n2c-3nc(C(N)=O)c2-c2cnn(CC(C)(C)O)c2)no1 (racemic)
- IC50 ([1]; Homo sapiens, HeLa, 5 h): 1900 nM
- Ki [2, 4]: 0.00071 µM
- IC50 ([3]; Homo sapiens, HeLa): > 20000 nM

SMILES: Cc1cc([C@](C)(O)C#Cc2ccc3c(c2)-c2nc(C(N)=O)c(CN4CCOCC4)n2CCO3)no1 [Example 103, 9-[(R)-3-hydroxy-3-(5-methyl-isoxazol-3-yl)-but-1-ynyl]-3-morpholin-4-ylmeth-yl-4,5-dihydro-6-oxa-1,3a-diaza-ben-zo[e]azulene-2-carboxylic acid amide]
- IC50 ([1]; Homo sapiens, HeLa, 5 h): 104 nM
- Ki [2, 4]: 0.002 µM
- IC50 ([3]; Homo sapiens, HeLa): 20000 nM

SMILES: CC(C)(O)C#Cc1ccc2c(c1)-c1nc(C(N)=O)c(C(F)(F)F)n1C1CC2C1 (racemic) [Example 206]
- IC50 ([1]; Homo sapiens, HeLa, 5 h): 4400 nM
- Ki [2, 4]: 0.026 µM
- IC50 ([3]; Homo sapiens, HeLa): > 20000 nM

SMILES: CN1CC[C@@](O)(C#Cc2cc3c(cc2F)C2CC(C2)n2c-3nc(C(N)=O)c2C(C)(C)O)C1=O [Example 327, 9-fluoro-3-(1-hydroxy-1-methyl-ethyl)-10-[2-[(3R)-3-hydroxy-1-methyl-2-oxo-pyrrolidin-3-yl]ethynyl]-5,6,7,12-tet-rahydro-5,7-methanobenzo[c]imidazo[1,2-a]azepine-2-carboxamide]
- IC50 ([1]; Homo sapiens, HeLa, 5 h): 7800 nM
- Ki [2, 4]: 0.00685 µM
- IC50 ([3]; Homo sapiens, HeLa): > 20000 nM

SMILES: CN1CC[C@@](O)(C#Cc2ccc3c(c2)-c2nc(C(N)=O)c(C(F)(F)F)n2CCO3)C1=O
- IC50 ([1]; Homo sapiens, HeLa, 5 h): 442 nM
- Ki [2, 4]: 0.00072 µM
- IC50 ([3]; Homo sapiens, HeLa): > 20000 nM

SMILES: Cc1cc([C@](C)(O)C#Cc2ccc3c(c2)-c2nc(C(N)=O)c(C(=O)NC4CCOCC4)n2C2CC3C2)no1 (racemic)
- IC50 ([1]; Homo sapiens, HeLa, 5 h): 284 nM
- Ki [2, 4]: 0.0011 µM
- IC50 ([3]; Homo sapiens, HeLa): 20000 nM

SMILES: CC(C)(O)c1c(C(N)=O)nc2n1C1CC(C1)c1cc(F)c(C#CC3(O)CCCC3)cc1-2 [Example 324, 9-fluoro-10-[2-(1-hydroxycyclopentyl)ethy-nyl]-3-(1-hydroxy-1-methyl-ethyl)-5,6,7,12-tetrahydro-5,7-methanobenzo[c]imi-dazo[1,2-a]azepine-2-carboxamide]
- IC50 [1]: 1100 nM
- Ki [2]: 0.0089 µM
- IC50 [3]: > 20000 nM

SMILES: Cc1cc([C@](C)(O)C#Cc2ccc3c(c2)-c2nc(C(N)=O)c(CC4(C)COC4)n2C2CC3C2)no1 (racemic)
- IC50 ([1]; Homo sapiens, HeLa, 5 h): 740 nM
- Ki [2, 4]: 0.0012 µM
- IC50 ([3]; Homo sapiens, HeLa): > 20000 nM

SMILES: CNC(=O)c1c(C(N)=O)nc2n1CCOc1cc(F)c(C#CC(C)(O)c3ccccn3)cc1-2 (stereo not drawn) [Example 180, 9-fluoro-10-[3-hydroxy-3-(2-pyridyl)but-1-ynyl]-N3-methyl-5,6-dihydroimi-dazo[1,2-d][1,4]benzoxazepine-2,3-dicarboxamide]
- IC50 ([1]; Homo sapiens, HeLa, 5 h): 870 nM
- Ki [2, 4]: 0.0012 µM
- IC50 ([3]; Homo sapiens, HeLa): > 20000 nM

SMILES: Cc1cc([C@](C)(O)C#Cc2ccc3c(c2)-c2nc(C(N)=O)c(-c4cnn(CC(C)(C)O)c4)n2C2CC3C2)no1
- IC50 ([1]; Homo sapiens, HeLa, 5 h): 934 nM
- Ki [2, 4]: 0.00059 µM
- IC50 ([3]; Homo sapiens, HeLa): > 20000 nM

SMILES: NC(=O)c1cn2c(n1)-c1cc(C#CC3(O)CCNC3=O)c(F)cc1OCC2 (racemic)
- IC50 ([1]; Homo sapiens, HeLa, 5 h): 16000 nM
- Ki [2, 4]: 0.0032 µM
- IC50 ([3]; Homo sapiens, HeLa): > 20000 nM

SMILES: Cc1cc([C@](C)(O)C#Cc2ccc3c(c2)-c2nc(C(N)=O)c(C(F)(F)F)n2C2CC3C2)no1
- IC50 ([1]; Homo sapiens, HeLa, 5 h): 511 nM
- Ki [2]: 0.0005 µM
- IC50 ([3]; Homo sapiens, HeLa): 15100 nM

SMILES: CNC(=O)c1c(C(N)=O)nc2n1C1CC(C1)c1ccc(C#C[C@@](C)(O)c3cc(C)on3)cc1-2 (racemic)
- IC50 ([1]; Homo sapiens, HeLa, 5 h): 1300 nM
- Ki [2, 4]: 0.00061 µM
- IC50 ([3]; Homo sapiens, HeLa): 1800 nM

SMILES: CC(C)(O)C#Cc1cc2c(cc1F)C1CC(C1)n1c-2nc(C(N)=O)c1C(F)(F)F
- IC50 ([1]; Homo sapiens, HeLa, 5 h): 2600 nM
- Ki [2, 4]: 0.0095 µM
- IC50 ([3]; Homo sapiens, HeLa): > 20000 nM

Further lines, with some results ahead:

- Ki [2, 4]: 0.0072 µM
- IC50 ([3]; Homo sapiens, HeLa): > 20000 nM
SMILES: Cc1nc([C@](C)(O)C#Cc2cc3c(cc2F)C2CC(C2)n2c-3nc(C(N)=O)c2C(F)(F)F)no1 (racemic)
- IC50 ([1]; Homo sapiens, HeLa, 5 h): 2300 nM

- Ki [2, 4]: 0.0024 µM
- IC50 ([3]; Homo sapiens, HeLa): > 20000 nM
SMILES: Cc1cc([C@](C)(O)C#Cc2cc3c(cc2F)C2CC(C2)n2cc(C(N)=O)nc2-3)on1
- IC50 ([1]; Homo sapiens, HeLa, 5 h): 675 nM

- Ki [2, 4]: 0.0003 µM
- IC50 ([3]; Homo sapiens, HeLa): 20000 nM
SMILES: Cc1cc([C@](C)(O)C#Cc2cc3c(cc2F)OCCn2cc(C(N)=O)nc2-3)no1 [Example 6, 8-fluoro-9-[(R)-3-hydroxy-3-(5-methyl-isoxazol-3-yl)-but-1-ynyl]-4,5-dihydro-6-oxa-1,3a-diaza-benzo[e]azulene-2-car-boxylic acid amide]
- IC50 ([1]; Homo sapiens, HeLa, 5 h): 135 nM

- Ki [2, 4]: 0.001 µM
- IC50 ([3]; Homo sapiens, HeLa): 20000 nM
SMILES: Cc1nc([C@](C)(O)C#Cc2cc3c(cc2F)OCCc2sc(C(N)=O)nc2-3)no1
- IC50 ([1]; Homo sapiens, HeLa, 5 h): 171 nM

- Ki [2, 4]: 0.0013 µM
- IC50 ([3]; Homo sapiens, HeLa): > 20000 nM
SMILES: Cc1cc([C@](C)(O)C#Cc2cc3c(cc2F)C2CC(C2)n2c-3nc(C(N)=O)c2C)no1
- IC50 ([1]; Homo sapiens, HeLa, 5 h): 385 nM

- Ki [2, 4]: 0.0087 µM
- IC50 ([3]; Homo sapiens, HeLa): > 20000 nM
SMILES: Cc1cc(-c2c(C(N)=O)nc3n2CCOc2cc(F)c(C#C[C@@](C)(O)c4noc(C)n4)cc2-3)[nH]n1
- IC50 ([1]; Homo sapiens, HeLa, 5 h): 2500 nM

- Ki [2, 4]: 0.00053 µM
- IC50 ([3]; Homo sapiens, HeLa): > 20000 nM
SMILES: CN1CCC(O)(C#Cc2cc3c(cc2F)OCCc2sc(C(N)=O)nc2-3)C1=O (stereo not drawn)
- IC50 ([1]; Homo sapiens, HeLa, 5 h): 450 nM

- Ki [2, 4]: 0.0002 µM
- IC50 ([3]; Homo sapiens, HeLa): > 20000 nM
SMILES: Cc1cc([C@](C)(O)C#Cc2cc3c(cc2F)C2CC(C2)c2[nH]c(C(N)=O)nc2-3)no1
- IC50 ([1]; Homo sapiens, HeLa, 5 h): 477 nM

- Ki [2, 4]: 0.0047 µM
- IC50 ([3]; Homo sapiens, HeLa): > 20000 nM
SMILES: C[C@@](O)(C#Cc1cc2c(cc1F)OCCn1c-2nc(C(N)=O)c1-c1nc(C2CC2)n[nH]1)c1ncccn1
- IC50 ([1]; Homo sapiens, HeLa, 5 h): 1600 nM

- Ki [2, 4]: 0.008 µM
- IC50 ([3]; Homo sapiens, HeLa): 20000 nM
SMILES: CC(O)(C#Cc1cc2c(cc1F)OCCn1cc(C(N)=O)nc1-2)CF (racemic) [Example 75]
- IC50 ([1]; Homo sapiens, HeLa, 5 h): 3800 nM

- Ki [2, 4]: 0.0007 µM
- IC50 ([3]; Homo sapiens, HeLa): > 20000 nM
SMILES: Cc1nc([C@](C)(O)C#Cc2cc3c(cc2F)C2CC(C2)n2c-3nc(C(N)=O)c2C)no1
- IC50 ([1]; Homo sapiens, HeLa, 5 h): 1100 nM

- Ki [2, 4]: 0.0004 µM
- IC50 ([3]; Homo sapiens, HeLa): > 20000 nM
SMILES: CC(C)(O)C#Cc1cc2c(cc1F)OCCn1c-2nc(C(N)=O)c1-c1nc(-c2cccnc2)n[nH]1 [Example 172]
- IC50 ([1]; Homo sapiens, HeLa, 5 h): 1200 nM

- Ki [2, 4]: 0.0004 µM
- IC50 ([3]; Homo sapiens, HeLa): 20000 nM
SMILES: CC(C)(O)C#Cc1cc2c(cc1F)OCCn1c-2nc(C(N)=O)c1C(=O)NCC#N
- IC50 ([1]; Homo sapiens, HeLa, 5 h): 77 nM

- Ki [2, 4]: 0.0026 µM
- IC50 ([3]; Homo sapiens, HeLa): > 20000 nM
SMILES: C[C@@](O)(C#Cc1cc2c(cc1F)C1CC(C1)c1[nH]c(C(N)=O)nc1-2)c1ncccn1
- IC50 ([1]; Homo sapiens, HeLa, 5 h): 1700 nM

- Ki [2, 4]: 0.003 µM
- IC50 ([3]; Homo sapiens, HeLa): 20000 nM
SMILES: CC(O)(C#Cc1cc2c(cc1F)OCCc1sc(C(N)=O)nc1-2)CO (stereo not drawn)
- IC50 ([1]; Homo sapiens, HeLa, 5 h): 1100 nM

Source: patent US9034866B2 (Genentech, Inc., priority 2012, dated 2015)
